In patent US6794389B2, “Quinazoline derivatives and drugs” (Nippon Shinyaku Co., Ltd., priority 2000, dated 2004):
Values joined by “and” are separate entries in the source; they are usually repeats but may differ in a detail not shown here. Equal entries are not always repeated. Structures can show the parent of a compound that is named as a salt.

Tests used:
μ-receptor = biological target: T1, μ-receptor (Homo sapiens, UniProt P35372); assay: μ-Receptor binding assay ([3H]diprenorphine, cell membrane preparation); conditions: [3H]diprenorphine 0.13 nM, 25° C., 90 minutes; Ki calculated from IC50 and Kd; read-out: Affinity for μ-receptor Ki
T1 construct: purchased Receptor Biology
Procedure: A human μ-receptor-expressing cell membrane preparation (Receptor Biology) was prepared so that it contained 8.5 μg/mL of the membrane protein in a Tris buffer [50 mM Tris-HCl (pH 7.8), 5 MM MgCl2, 1 mM EGTA, 0.1% BSA]. To this, [^3H]diprenorphine (diluted at the final concentration of 0.13 nM with the Tris buffer) and a tested substance were added and the mixture was incubated at 25° C. for 90 minutes. Using a cell harvester and a washing solution [50 mM Tris-HCl (pH 7.8), 4° C.], the membrane was recovered onto a GF/B filter which had been pretreated with 0.3% PEI, which was then washed further 4 times. The filter was transferred to a vial, to which a scintillator was added, and the radioactivity was measured using a liquid scintillation counter. A non-specific binding was regarded as a binding in the presence of 100 μM naloxone, and a specific binding was obtained by subtracting the non-specific binding from the total binding. From a ratio of binding inhibition in the presence of the tested substance, and IC50 value was obtained, and was then used together with the Kd value for [^3H]diprenorphine to calculate the Ki value of the tested substance.

nociceptin receptor = biological target: T2, nociceptin receptor (Homo sapiens, UniProt P41146); assay: Nociceptin receptor binding assay ([3H]nociceptin, cell membrane suspension); conditions: [3H]nociceptin 0.08 nM, 25° C., 60 minutes; Ki calculated from IC50 and Kd; read-out: Affinity for nociceptin receptors Ki
T2 construct: expressed in transfected cells
Procedure: A cell membrane suspension obtained from a human nociceptin-expressing cell was prepared so that it contained 5 to 10 μg/mL of the membrane protein in a Tris buffer [50 mM Tris-HCl (pH 7.8), 5 mM MgCl2, 1 mM EGTA, 0.1% BSA]. To this, [^3H]nociceptin (diluted at the final concentration of 0.08 nM with the Tris buffer) and a tested substance were added and the mixture was incubated at 25° C. for 60 minutes. Using a cell harvester and a washing solution [50 mM Tris-HCl (pH 7.8), 4° C.], the membrane was recovered onto a GF/B filter which had been pretreated with 0.3% PEI, which was then washed further 4 times. The filter was transferred to a vial, to which a scintillator was added, and the radioactivity was measured using a liquid scintillation counter. Noted that a non-specific binding was regarded as a binding in the presence of 10 μM nociceptin, and a specific binding was obtained by subtracting the non-specific binding from the total binding. From a ratio of binding inhibition in the presence of the tested substance, an IC50 value was obtained, and was then used together with the Kd value for [^3H]nociceptin to calculate the K1 value for the tested substance.

[1] = test system: acetic acid-induced writhing reactions in mice; assay: Acetic acid-writhing test in mice; format: in vivo, mice (Slc:ddY); conditions: 10 nmol/animal intrathecal, male mice, counted over 20 minutes after 0.6% acetic acid intraperitoneally; for Number of writhings (individual animal): animal No. 1-10; for Number of writhings (Mean): mean of 10 animals (saline control 17.67)
Procedure: Ten male mice (Slc:ddY, 4 to 5 weeks old) were assigned to each group. The dorsal skin of each mouse was incised laterally in a length of approximately 3 cm, and after acclimatizing for 30 minutes or longer a 27G needle fitted on the tip of a silicone tube connected to a microsyringe was inserted into a position around L3-L4, through which 5 μL of a drug solution was infused, whereby effecting an administration into a spinal subarachnoid cavity. The tested substance was dissolved in physiological saline, and administered at 10 nmol/animal. In a control group, physiological saline was administered similarly.
A mouse which had been fasting since the day before the experiment was placed in an observation cage (20×20×15 cm), where it was allowed to be acclimatized over a period of 30 minutes or longer, and then received 100 μL per 10 g body weight of a 0.6% acetic acid solution intraperitoneally via a 27G needle. The number of the writhing reactions with stretching the abdomen was counted over 20 minutes after the administration of acetic acid, and the obtained data were represented as means±standard errors. Only the screening data were subjected to the test for a significant difference by a t test between the two groups of the control and a treatment group or by one-way analysis of variance among multiple groups followed by Dunnett's multiple comparison test, and the significant difference was regarded to be present when p<0.05.

T2 sequence (P41146 whole entry): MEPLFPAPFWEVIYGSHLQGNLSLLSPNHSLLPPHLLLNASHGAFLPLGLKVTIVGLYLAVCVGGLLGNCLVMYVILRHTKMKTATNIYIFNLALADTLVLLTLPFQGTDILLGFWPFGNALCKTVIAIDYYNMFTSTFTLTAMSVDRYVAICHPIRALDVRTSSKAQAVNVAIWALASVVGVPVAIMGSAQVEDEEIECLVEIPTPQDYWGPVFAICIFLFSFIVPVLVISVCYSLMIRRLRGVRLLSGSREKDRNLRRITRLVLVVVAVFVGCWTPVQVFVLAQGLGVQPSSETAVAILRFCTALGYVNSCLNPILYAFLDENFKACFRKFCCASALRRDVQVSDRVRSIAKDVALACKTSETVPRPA
T1 sequence (P35372 whole entry): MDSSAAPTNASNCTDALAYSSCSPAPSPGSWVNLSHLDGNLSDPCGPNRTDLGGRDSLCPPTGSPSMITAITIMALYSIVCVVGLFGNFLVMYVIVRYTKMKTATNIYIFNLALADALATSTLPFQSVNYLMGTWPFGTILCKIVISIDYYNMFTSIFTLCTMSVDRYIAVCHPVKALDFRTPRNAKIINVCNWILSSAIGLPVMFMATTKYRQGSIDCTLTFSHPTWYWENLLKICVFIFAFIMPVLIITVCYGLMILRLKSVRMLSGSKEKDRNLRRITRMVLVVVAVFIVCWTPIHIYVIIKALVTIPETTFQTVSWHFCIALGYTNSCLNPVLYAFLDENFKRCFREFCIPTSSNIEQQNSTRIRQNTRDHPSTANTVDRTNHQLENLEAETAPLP

Compound: COc1ccc2nc(C=Cc3ccccn3)nc(N[C@H]3CC[C@@H](CNC(=N)N)C[C@H]3C)c2c1 (relative stereo) [Example 68, cis-4-Guanidinomethyl-cis-2-methyl-N-{6-methoxy-2-[2-(2-pyridyl)ethenyl]quinazolin-4-yl}cyclohexylamine Trihydrochloride]
- Ki (μ-receptor): 32 nM
- Ki (nociceptin receptor): 3 nM

Compound: COc1ccc2nc(C=Cc3ccc(Cl)cc3)nc(NCCCCCCNC(=N)N)c2c1 [Example 16, N-Amidino-N′-[2-(4-chlorostyryl)-6-methoxyquinazolin-4-yl]-1,6-hexanediamine Dihydrochloride]
- Ki (μ-receptor): 38 nM
- Ki (nociceptin receptor): 9 nM

Compound: COc1ccc2nc(C=Cc3ccccn3)nc(NCCCCCCNC(=N)N)c2c1.Cl.Cl [Example 23, N-Amidino-N′-{6-methoxy-2-[2-(2-pyridyl)ethenyl]quinazolin-4-yl}-1,6-hexanediamine Dihydrochloride]
- Number of writhings (individual animal) ([1]; listed as Ex. 23, Dihydrochloride): 14 and 0 (5×) and 6 and 18 and 28 and 3
- Number of writhings (Mean) [1]: 6.90
- Ki (μ-receptor): 19 nM
- Ki (nociceptin receptor): 3 nM

Compound: COc1ccc2nc(C=Cc3ccccn3)nc(NC(C)CCCCCNC(=N)N)c2c1.Cl.Cl.Cl (stereo not drawn) [Example 48, N-Amidino-6-{6-methoxy-2-[2-(2-pyridyl)ethenyl]quinazolin-4-yl}aminoheptylamine Trihydrochloride]
- Number of writhings (individual animal) ([1]; listed as Ex. 48, Trihydrochloride): 7 and 0 (4×) and 6 and 16 and 1 and 14 and 12
- Number of writhings (Mean) [1]: 5.60

Compound: cis-4-Guanidinomethyl-N-{2-[2-(2-pyridyl)ethenyl]-6-methoxyquinazolin-4-yl}cyclohexylamine Trihydrochloride [Example 4]
- Number of writhings (individual animal) ([1]; listed as Ex. 4, Trihydrochloride): 18 and 12 (2×) and 10 and 0 (2×) and 2 and 11 and 1 and 13
- Number of writhings (Mean) [1]: 7.90
- Ki (μ-receptor): 63 nM
- Ki (nociceptin receptor): 8 nM

Compound: COc1ccc2nc(C=Cc3ccccn3)nc(NC[C@H]3CC[C@@H](CNC(=N)N)CC3)c2c1 [Example 44, cis-N-Amidino-N′-{6-methoxy-2-[2-(2-pyridyl)ethenyl]quinazolin-4-yl}-1,4-bis(aminomethyl)cyclohexane Trihydrochloride]
- Ki (μ-receptor): 30 nM
- Ki (nociceptin receptor): 7 nM

Compound: COc1ccc2nc(C=Cc3ccccn3)nc(NCCN(CCc3ccccc3)C(=N)N)c2c1 [Example 66, N-Amidino-2-{6-methoxy-2-[2-(2-pyridyl)ethenyl]quinazolin-4-yl}aminoethyl-phenylethylamine Trihydrochloride]
- Ki (μ-receptor): 22 nM
- Ki (nociceptin receptor): 4 nM

Compound: Cc1ccc2nc(C=Cc3ccccn3)nc(NCCCCCCNC(=N)N)c2c1.Cl.Cl.Cl [Example 46, N-Amidino-N′-{6-methyl-2-[2-(2-pyridyl)ethenyl]quinazolin-4-yl}-1,6-hexanediamine Trihydrochloride]
- Number of writhings (individual animal) ([1]; listed as Ex. 46, Trihydrochloride): 0 (4×) and 13 and 6 and 3 and 10 and 4 and 9
- Number of writhings (Mean) [1]: 4.50
- Ki (μ-receptor): 23 nM
- Ki (nociceptin receptor): 3 nM

Compound: COc1ccc2nc(NC(=O)c3ccc(Cl)cc3)nc(N[C@H]3CCCC[C@H]3NC(=N)N)c2c1 (relative stereo) [Example 2, cis-N-Amidino-2-[2-(4-chlorobenzoylamino)-6-methoxyquinazolin-4-yl]aminocyclohexylamine Dihydrochloride]
- Ki (μ-receptor): 193 nM
- Ki (nociceptin receptor): 6 nM
